Where “and” joins values, the source holds several entries; their conditions need not be identical. Equal values may be shown once. Calls of active or inactive are those of the source. The rule behind the calls is not given here.

In this experiment the test system is in vivo angiogenesis, blood vessel count. Kind of experiment: reduction of blood vessel formation in vivo – HTS, in vivo study (AID 732).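 Note: zebrafish embryos dosed at one day post fertilization; 0% = reference inhibitor and 100% = plate mean.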 Particulars: hits give low values;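 tested at 30 µM in the well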.
Take `Nc1ncnc2c1ncn2C1CCCC1`: the vessel count % control is 81.5% (inactive).
Regarding `CN[C@@H]1C[C@@H](c2ccc(Cl)c(Cl)c2)c2ccccc21`, the vessel count % control was 0% (inactive).
Regarding `C[C@](N)(Cc1ccc(O)cc1)C(=O)O`, the vessel count % control was 116% (inactive).
Turning to `c1ccc2c(c1)CCCC2C1=NCCN1` (stereo not drawn), the vessel count % control is 76% (inactive).
Consider `Nc1ccc(CCN2CCN(c3cccc(C(F)(F)F)c3)CC2)cc1`, for which the vessel count % control was 96.3% (inactive).
With `N#C/C(=C\c1ccc(O)c(O)c1)C(=O)NCCCc1ccccc1`, the vessel count % control is 137% (inactive).
As for `CN[C@H](CC(=O)O)C(=O)O`, the figure is 86.7% (inactive); as for `Nc1ncnc2c1ncn2[C@@H]1O[C@H](COP(=O)(O)CP(=O)(O)OP(=O)(O)O)[C@H](O)C1O` (stereo partly drawn), 95.1% (inactive).
For `NC(N)=NC(N)=Nc1ccccc1`, the vessel count % control is 72.6% (inactive).
Then `O=C(Cc1ccc(Cl)c(Cl)c1)OCCN1CCCC1`, with 81.9% (inactive); and `COC1=C(OC)C(=O)c2ccccc2C1=O`, with 115% (inactive).
Take `Cn1cc(C2=C(c3ccc(Cl)cc3Cl)C(=O)NC2=O)c2ccccc21`: the vessel count % control is 0% (inactive).
For `CC(C)COC(=O)OCN1C(=O)CN(CCN2CC(=O)N(COC(=O)OCC(C)C)C(=O)C2)CC1=O`, the vessel count % control was 104% (inactive).
On to `C[C@]12CC[C@H](O)CC1=CC[C@@H]1[C@@H]2CC[C@]2(C)C(=O)CC[C@@H]12`, for which the vessel count % control was 106% (inactive).
As for `NS(=O)(=O)c1cc2c(cc1Cl)NCNS2(=O)=O`, the vessel count % control was 103% (inactive).
As for `OC(CN1CCC(Cc2ccc(F)cc2)CC1)c1ccc(Cl)cc1` (stereo not drawn), the figure is 61.6% (inactive); as for `CN(C)CCCN1c2ccccc2Sc2ccc(Cl)cc21`, 84.3% (inactive); as for `N[C@@H](COP(=O)(O)O)C(=O)O`, 105% (inactive).
Consider `O=C(CCCN1CCC2(CC1)C(=O)NCN2c1ccccc1)c1ccc(F)cc1`, for which the vessel count % control was 77.9% (inactive).
For the compound `C[N+](C)(C)CC#CCOC(=O)Nc1cccc(Cl)c1`, the vessel count % control is 81.2% (inactive).
As for `CC(COc1ccccc1)N(CCCl)Cc1ccccc1` (stereo not drawn), the vessel count % control was 139% (inactive).
Consider `OC(CN1CCN(c2cccc(Cl)c2)CC1)C(c1ccccc1)c1ccccc1` (stereo not drawn), for which the vessel count % control is 67.8% (inactive).
Then `CC(NC(C)(C)C)C(=O)c1cccc(Cl)c1` (stereo not drawn), with 71.1% (inactive); and `CC(C)CC(NP(=O)(O)O[C@@H]1O[C@@H](C)[C@H](O)[C@@H](O)[C@H]1O)C(=O)NC(Cc1c[nH]c2ccccc12)C(=O)O` (stereo partly drawn), with 118% (inactive).
As for `CCOC(=O)C1=C(C)NC(C)=C(C(=O)OC)C1c1cccc(Cl)c1Cl` (stereo not drawn), the figure is 56% (inactive); as for `CCN(CC)CCNC(=O)c1cc(Cl)c(N)cc1OC`, 99.4% (inactive).
For `CC(C)NC[C@@H](O)COc1ccc(CC(N)=O)cc1`, the vessel count % control is 94.2% (inactive).
`CN1C2CCC1CC(OC(=O)C(CO)c1ccccc1)C2` (stereo not drawn): the vessel count % control is 120% (inactive) and 116% (inactive).
As to `CCc1c(C)[nH]c2c1C(=O)C(CN1CCOCC1)CC2` (stereo not drawn), the vessel count % control is 93.5% (inactive).
Turning to `CC(=O)c1ccc(S(=O)(=O)NC(=O)NC2CCCCC2)cc1`, the vessel count % control was 84.8% (inactive).
Then `O=C(O)/C(=C/c1c(C(=O)O)[nH]c2cc(Cl)cc(Cl)c12)c1ccccc1`, with 108% (inactive).
For `O=C(c1ccc(OCCN2CCCCC2)cc1)c1c(-c2ccc(O)cc2)sc2cc(O)ccc12`, the vessel count % control is 87.4% (inactive).
For `Cc1ccc(O)c(N=Nc2ccccc2)n1`, the vessel count % control was 112% (inactive).
As for `CC1(C)NC(=O)N(c2ccc([N+](=O)[O-])c(C(F)(F)F)c2)C1=O`, the figure is 91.7% (inactive); as for `C[C@]12CC[C@H]3[C@@H](CCC4C[C@H](O)CC[C@@]43C)[C@@H]1CC[C@@H]2O` (stereo partly drawn), 106% (inactive).
Consider `CC(C)NC[C@H](O)COc1cccc2[nH]ccc12`, for which the vessel count % control was 97.6% (inactive) and 70.7% (inactive).
On to `N#C/C(=C\c1ccc(O)c(O)c1)C(=O)c1ccc(O)c(O)c1`, for which the vessel count % control is 124% (inactive).
As for `Nc1ccc(S(=O)(=O)Nc2ccnn2-c2ccccc2)cc1`, the figure is 122% (inactive); as for `CC(C(=O)O)c1cccc(C(=O)c2ccccc2)c1` (stereo not drawn), 122% (inactive); as for `c1ccc(CN2CCC3(CCCc4ccccc43)CC2)cc1`, 128% (inactive).
As for `C[N+]1(C)CCN(c2ccccc2)CC1`, the figure is 89.3% (inactive).
As for `Nc1ccc(N2C(=O)c3ccccc3C2=O)c(Cl)c1`, the figure is 78.4% (inactive); as for `CC(=O)OCC1=C(C(=O)O)N2C(=O)[C@@H](NC(=O)CSc3ccncc3)[C@H]2SC1`, 97.3% (inactive).
For the compound `O=c1[nH]c2cc([N+](=O)[O-])c([N+](=O)[O-])cc2[nH]c1=O`, the vessel count % control was 104% (inactive).
Take `NC(Cc1ccc(Cl)cc1)C(=O)O` (stereo not drawn): the vessel count % control was 103% (inactive).
As for `Cn1cnc([N+](=O)[O-])c1Sc1ncnc2nc[nH]c12`, the figure is 81.5% (inactive).
Then `O=P(O)(O)C(Cl)(Cl)P(=O)(O)O`, with 110% (inactive); and `CCc1cccc(N(C)C(N)=Nc2cccc3ccccc23)c1`, with 105% (inactive).
As to `C[C@@H]1C(=O)NC2=Nc3cccc(Cl)c3CN21`, the vessel count % control was 119% (inactive).
Consider `CCC1(C)CC(=O)NC1=O` (stereo not drawn), for which the vessel count % control is 95.8% (inactive).
Then `CC(C)c1cccc(C(C)C)c1O`, with 99.6% (inactive); and `N=C(N)c1ccc(OCCCCCOc2ccc(C(=N)N)cc2)cc1` (tested in a mixture with another compound), with 99.1% (inactive).
As to `Cn1ccc2cc3c(cc21)CCN3C(=O)Nc1cccnc1`, the vessel count % control is 88% (inactive).
`CN(C(=O)Cc1ccc(Cl)c(Cl)c1)C(CN1CCCC1)c1cccc(OCC(=O)O)c1` (stereo not drawn): the vessel count % control was 124% (inactive).
As for `OC[C@H]1O[C@@H](n2cnc3cncnc32)[C@H](O)[C@@H]1O`, the figure is 82.1% (inactive); as for `CCC(C)N(C)C(=O)c1cc2ccccc2c(-c2ccccc2Cl)n1` (stereo not drawn), 102% (inactive).
As for `CCCCNc1cc(C(=O)O)cc(S(N)(=O)=O)c1Oc1ccccc1`, the figure is 59.2% (inactive); as for `O=C(O)CN(CCOCCOCCN(CC(=O)O)CC(=O)O)CC(=O)O`, 103% (inactive).
With `Oc1[nH]c2ccccc2c1C1=Nc2ccc(Br)cc2/C1=N\OCCBr`, the vessel count % control was 79.9% (inactive).
Regarding `COc1[nH]c2ccc(F)cc2c1C(=O)OCC1CCN(CCNS(C)(=O)=O)CC1`, the vessel count % control is 99.6% (inactive).
Then `CC(C)(CO)Cc1cc(C(C)(C)C)c(O)c(C(C)(C)C)c1`, with 105% (inactive); and `C[C@]12CC[C@@H](O)CC1CC[C@@H]1[C@@H]2CC[C@]2(C)C(=O)CC[C@@H]12` (stereo partly drawn), with 104% (inactive).
With `N[C@H]1CONC1=O`, the vessel count % control is 93% (inactive).
As for `Cc1ccc2[nH]c(O)c(C3=Nc4ccc(Br)cc4C3=O)c2c1`, the figure is 108% (inactive); as for `O=c1[nH]c(=O)c2nc3ccccc3nc2[nH]1`, 129% (inactive).
Regarding `O=C(CCNNC(=O)c1ccncc1)NCc1ccccc1`, the vessel count % control is 67.2% (inactive).
`CC(=O)[C@]1(O)Cc2c(O)c3c(c(O)c2[C@@H](O[C@H]2C[C@H](N)[C@H](O)[C@H](C)O2)C1)C(=O)c1ccccc1C3=O`: the vessel count % control was 0% (inactive).
As for `COc1cccc(C(=O)NCCN2CCN(c3ccc(Cl)cc3)CC2)c1`, the figure is 66.6% (inactive).
Consider `CCNC(=O)N1CCN(CCCC(c2ccc(F)cc2)c2ccc(F)cc2)CC1`, for which the vessel count % control is 83.9% (inactive).
For `COC(=O)c1cc2c(cn1)[nH]c1ccccc12`, the vessel count % control is 92.7% (inactive).
Turning to `O=C(/C=C/c1ccc(O)c(O)c1)OCCc1ccccc1`, the vessel count % control was 0% (inactive).
As to `O=C(O)/C=C/c1cnc[nH]1`, the vessel count % control was 108% (inactive).
On to `CC(N)(Cc1ccc(O)cc1)C(=O)O` (stereo not drawn), for which the vessel count % control is 105% (inactive).
As for `O=c1[nH]c2ccccc2n1CCCN1CCC(n2c(=O)[nH]c3cc(Cl)ccc32)CC1`, the vessel count % control is 83.8% (inactive).
Then `CC(N)Cc1c[nH]c2ccc(OCc3cccs3)cc12` (stereo not drawn), with 107% (inactive); and `Cc1ccccc1CNc1ncnc2c1ncn2C1OC(CO)C(O)C1O` (stereo not drawn), with 93.1% (inactive).
Turning to `CN(C)CCN(Cc1cccs1)c1ccccn1`, the vessel count % control was 110% (inactive).
Take `NC(=O)CI`: the vessel count % control is 108% (inactive).
As for `Cn1ccnc1`, the figure is 109% (inactive); as for `CCCc1c(OCCCOc2ccc(OCC(=O)O)cc2)ccc(C(C)=O)c1O`, 92.9% (inactive).
Regarding `C[C@H](CS)C(=O)N1CCC[C@H]1C(=O)O`, the vessel count % control is 100% (inactive).
Take `CCCCS(=N)(=O)CCC(N)C(=O)O` (stereo not drawn): the vessel count % control was 137% (inactive).
`Nc1nc(OCc2ccccc2)c2[nH]cnc2n1`: the vessel count % control was 91% (inactive).
In the case of `Oc1ccc(-c2nc(-c3ccc(F)cc3)c(-c3ccncc3)[nH]2)cc1`, the vessel count % control was 97.9% (inactive).
As to `NC(=O)OCC(COC(N)=O)c1ccccc1`, the vessel count % control was 62.7% (inactive).
Turning to `O=C1c2c(O)ccc(O)c2C(=O)c2c(NCCNCCO)ccc(NCCNCCO)c21`, the vessel count % control was 136% (inactive).
As for `CC[C@@H](CO)NC(=O)[C@@H]1C=C2c3cccc4[nH]cc(c34)C[C@H]2N(C)C1`, the figure is 121% (inactive); as for `CC(=O)Oc1cc(C(C)C)c(OCCN(C)C)cc1C`, 109% (inactive).
